Source: article PMC6100082, “Pyridine-Ureas as Potential Anticancer Agents: Synthesis and In Vitro Biological Evaluation” (Molecules : A Journal of Synthetic Chemistry and Natural …, 2018)

Key:
HS 578T = assay: NCI one-dose SRB assay (Breast Cancer); format: cell-based, human
Protocol: (§1) The structures of all the newly prepared pyridine-ureas 8a–n were submitted to the National Cancer Institute (NCI) Developmental Therapeutic Program. Eight compounds 8b, 8d, 8e, 8i, 8j and 8l–n were selected to be examined for their in vitro growth inhibitory activity. The anticancer assays were carried out according to the protocol of the Drug Evaluation Branch, NCI, Bethesda. The selected pyridine-ureas were tested at one dose primary anticancer assay against a panel of approximately 58 cancer lines (concentration 10^−5 M). The tested human cancer cell lines emerged from nine different cancer subtypes: leukemia, colon, melanoma, ovarian, lung, CNS, renal, breast and prostate cancers. The sulforhodamine B (SRB) protein assay was adopted to estimate the cell viability and growth. The results were reported as mean-graph of the percentage growth of the treated cells, and presented as percentage growth inhibition (GI%) caused by the test compounds (Table 2).
(§2) The anticancer assays were performed in accordance with the protocol of the Drug Evaluation Branch, NCI, Bethesda. A 48 h drug exposure protocol was used and sulforhodamine B (SRB) protein assay was applied to estimate the cell viability and growth, as reported earlier.

BT-549 = assay: NCI one-dose SRB assay (Breast Cancer); format: cell-based, human
Protocol: as §1, §2

MCF7 = assay: NCI one-dose SRB assay (Breast Cancer); format: cell-based, human
Protocol: as §1, §2

MDA-MB-468 = assay: NCI one-dose SRB assay (Breast Cancer); format: cell-based, human
Protocol: as §1, §2

T-47D = assay: NCI one-dose SRB assay (Breast Cancer); format: cell-based, human
Protocol: as §1, §2

MDA-MB-231 = assay: NCI one-dose SRB assay (Breast Cancer); format: cell-based, human
Protocol: as §1, §2

NCI-H226 = assay: NCI one-dose SRB assay (Non-Small Cell Lung Cancer); format: cell-based, human
Protocol: as §1, §2

NCI-H322M = assay: as above; format: cell-based, human
Protocol: as §1, §2

HOP-92 = assay: as above; format: cell-based, human
Protocol: as §1, §2

NCI-H460 = assay: as above; format: cell-based, human
Protocol: as §1, §2

A549/ATCC = assay: as above; format: cell-based, human
Protocol: as §1, §2

EKVX = assay: as above; format: cell-based, human
Protocol: as §1, §2

NCI-H23 = assay: as above; format: cell-based, human
Protocol: as §1, §2

HOP-62 = assay: as above; format: cell-based, human
Protocol: as §1, §2

NCI-H522 = assay: as above; format: cell-based, human
Protocol: as §1, §2

NCI 58 cell line panel = assay: NCI one-dose SRB assay, whole panel / subpanel summary; format: cell-based, human
Protocol: as §1, §2

PC-3 = assay: NCI one-dose SRB assay (Prostate); format: cell-based, human
Protocol: as §1, §2

DU-145 = assay: NCI one-dose SRB assay (Prostate); format: cell-based, human
Protocol: as §1, §2

OVCAR-4 = assay: NCI one-dose SRB assay (Ovarian Cancer); format: cell-based, human
Protocol: as §1, §2

OVCAR-5 = assay: NCI one-dose SRB assay (Ovarian Cancer); format: cell-based, human
Protocol: as §1, §2

OVCAR-3 = assay: NCI one-dose SRB assay (Ovarian Cancer); format: cell-based, human
Protocol: as §1, §2

SNB-19 = assay: NCI one-dose SRB assay (CNS Cancer); format: cell-based, human
Protocol: as §1, §2

SF-539 = assay: NCI one-dose SRB assay (CNS Cancer); format: cell-based, human
Protocol: as §1, §2

SF-268 = assay: NCI one-dose SRB assay (CNS Cancer); format: cell-based, human
Protocol: as §1, §2

SNB-75 = assay: NCI one-dose SRB assay (CNS Cancer); format: cell-based, human
Protocol: as §1, §2

SF-295 = assay: NCI one-dose SRB assay (CNS Cancer); format: cell-based, human
Protocol: as §1, §2

U251 = assay: NCI one-dose SRB assay (CNS Cancer); format: cell-based, human
Protocol: as §1, §2

[1] = Homo sapiens, 10 μM, read-out: Percentage growth inhibition (GI%)

Q: Which results are given for COc1ccc(-c2ccc(NC(=O)Nc3ccc(Cl)cc3)c(C)n2)cc1 [Compound 8d, 1-(4-Chlorophenyl)-3-(6-(4-methoxyphenyl)-2-methylpyridin-3-yl) Urea]?
A: melting point: 231 to 232 °C; Growth Percent (HS 578T; 1.00E-5 Molar): 98.36%; inhibition at 10 µM (HS 578T; [1]): < 10%; Growth Percent (BT-549; BT-549, 1.00E-5 Molar): 96.71%; inhibition at 10 µM (BT-549; Homo sapiens, BT-549, 10 μM, read-out: Percentage growth inhibition (GI%)): < 10%; inhibition at 10 µM (MCF7; Homo sapiens, MCF7, 10 μM, read-out: Percentage growth inhibition (GI%)): 26%; Growth Percent (MCF7; MCF7, 1.00E-5 Molar): 74.74%; inhibition at 10 µM (MDA-MB-468; Homo sapiens, MDA-MB-468, 10 μM, read-out: Percentage growth inhibition (GI%)): < 10%; Growth Percent (MDA-MB-468; MDA-MB-468, 1.00E-5 Molar): 91.54%; Growth Percent (T-47D; 1.00E-5 Molar): 72.90%; inhibition at 10 µM (T-47D; Homo sapiens, T47D, 10 μM, read-out: Percentage growth inhibition (GI%)): 28%; inhibition at 10 µM (MDA-MB-231; Homo sapiens, MDA-MB-231, 10 μM, read-out: Percentage growth inhibition (GI%)): < 10%; Growth Percent (MDA-MB-231; MDA-MB-231/ATCC, 1.00E-5 Molar): 97.34%; inhibition at 10 µM (NCI-H226; Homo sapiens, NCI-H226, 10 μM, read-out: Percentage growth inhibition (GI%)): < 10%; Growth Percent (NCI-H226; NCI-H226, 1.00E-5 Molar): 97.81%; Growth Percent (NCI-H322M; 1.00E-5 Molar): 65.27%; inhibition at 10 µM (NCI-H322M; [1]): 35%; Growth Percent (HOP-92; HOP-92, 1.00E-5 Molar): 81.02%; inhibition at 10 µM (HOP-92; Homo sapiens, HOP-92, 10 μM, read-out: Percentage growth inhibition (GI%)): 19%; inhibition at 10 µM (NCI-H460; Homo sapiens, NCI-H460, 10 μM, read-out: Percentage growth inhibition (GI%)): 36%; Growth Percent (NCI-H460; NCI-H460, 1.00E-5 Molar): 64.55%; Growth Percent (A549/ATCC; 1.00E-5 Molar): 68.26%; inhibition at 10 µM (A549/ATCC; [1]): 32%; Growth Percent (EKVX; 1.00E-5 Molar): 92.90%; inhibition at 10 µM (EKVX; [1]): < 10%; inhibition at 10 µM (NCI-H23; Homo sapiens, NCI-H23, 10 μM, read-out: Percentage growth inhibition (GI%)): < 10%; Growth Percent (NCI-H23; NCI-H23, 1.00E-5 Molar): 94.08%; Growth Percent (HOP-62; HOP-62, 1.00E-5 Molar): 81.25%; inhibition at 10 µM (HOP-62; Homo sapiens, HOP-62, 10 μM, read-out: Percentage growth inhibition (GI%)): 19%; inhibition at 10 µM (NCI-H522; Homo sapiens, NCI-H522, 10 μM, read-out: Percentage growth inhibition (GI%)): 33%; Growth Percent (NCI-H522; NCI-H522, 1.00E-5 Molar): 67.47%; inhibition at 10 µM (NCI 58 cell line panel; Homo sapiens, 10 μM, one dose, read-out: mean inhibition (mean % growth inhibition over NCI 58 cell line panel)): 14%; Mean Growth Percent (NCI 58 cell line panel; One Dose Mean Graph, 1.00E-5 Molar): 86.24%; inhibition at 10 µM (PC-3; Homo sapiens, PC-3, 10 μM, read-out: Percentage growth inhibition (GI%)): 24%; Growth Percent (PC-3; PC-3, 1.00E-5 Molar): 76.01%; Growth Percent (DU-145; DU-145, 1.00E-5 Molar): 98.63%; inhibition at 10 µM (DU-145; Homo sapiens, DU-145, 10 μM, read-out: Percentage growth inhibition (GI%)): < 10%; inhibition at 10 µM (OVCAR-4; Homo sapiens, OVCAR-4, 10 μM, read-out: Percentage growth inhibition (GI%)): 26%; Growth Percent (OVCAR-4; OVCAR-4, 1.00E-5 Molar): 74.67%; inhibition at 10 µM (OVCAR-5; Homo sapiens, OVCAR-5, 10 μM, read-out: Percentage growth inhibition (GI%)): < 10%; Growth Percent (OVCAR-5; OVCAR-5, 1.00E-5 Molar): 93.01%; inhibition at 10 µM (OVCAR-3; Homo sapiens, OVCAR-3, 10 μM, read-out: Percentage growth inhibition (GI%)): < 10%; Growth Percent (OVCAR-3; OVCAR-3, 1.00E-5 Molar): 101.66%; inhibition at 10 µM (SNB-19; Homo sapiens, SNB-19, 10 μM, read-out: Percentage growth inhibition (GI%)): < 10%; Growth Percent (SNB-19; SNB-19, 1.00E-5 Molar): 94.20%; inhibition at 10 µM (SF-539; Homo sapiens, SF-539, 10 μM, read-out: Percentage growth inhibition (GI%)): 16%; Growth Percent (SF-539; SF-539, 1.00E-5 Molar): 84.16%; inhibition at 10 µM (SF-268; Homo sapiens, SF-268, 10 μM, read-out: Percentage growth inhibition (GI%)): < 10%; Growth Percent (SF-268; SF-268, 1.00E-5 Molar): 96.43%; inhibition at 10 µM (SNB-75; Homo sapiens, SNB-75, 10 μM, read-out: Percentage growth inhibition (GI%)): 16%; Growth Percent (SNB-75; SNB-75, 1.00E-5 Molar): 84.87%; inhibition at 10 µM (SF-295; Homo sapiens, SF-295, 10 μM, read-out: Percentage growth inhibition (GI%)): < 10%; Growth Percent (SF-295; SF-295, 1.00E-5 Molar): 97.10%; inhibition at 10 µM (U251; Homo sapiens, U-251, U251, 10 μM, read-out: Percentage growth inhibition (GI%)): 24%; Growth Percent (U251; U251, 1.00E-5 Molar): 76.51%
